Patent US20190254997A1, “METHODS FOR INDUCING STEREOCILIA ON HAIR CELLS” (The Regents of the University of California, priority 2016, published 2019)

Legend:
[1] = test system: myosin7A-positive cells (HCs) in utricular explants; test: Effect of Notch inhibition (DAPT) on GM-damaged utricular explants, myosin7A immunoreactivity; type: cell-based, CD-1 mice; details: for number of myosin7A-positive cells: with or without 20 μM DAPT for 2 days then 5 days without, mean ± SD
Description: Effect of notch inhibition. To induce HC-like cells, two days after GM damage, we cultured utricular explants with 20 μM DAPT (N-[N-[(3,5-Difluoropheny)acetyl]-L-alanyl]L-phenylglycinetert-butyl: C23H26F2N2O4, Abcam) for 2 days, followed by 5 days without DAPT. DAPT is a prototypical y-secretase inhibitor. Since Notch signaling requires γ-secretase activity, DAPT is a potent inhibitor of this signaling pathway. As a control, we cultured GM-damaged utricles for 7 days without DAPT. Explants were analyzed for myosin7A immunoreactivity both as whole mounts and as tissue sections
Histochemical analysis. At the end of the culture period, explants were fixed for 15 min in 4% paraformaldehyde and permeabilized with 5% Triton X-100 in phosphate-buffered saline (PBS) after 3×PBS wash. Explants were then exposed to a blocking solution containing 10% bovine serum albumin (BSA), and then incubated with anti-myosin7A rabbit polyclonal antibodies (25-6790; Proteus Bioscience Inc., Ramona, Calif., USA; 1:500). Alexa-Fluor 568 goat anti-rabbit IgG (A-11011, Invitrogen, Calif., USA; 1:100) was used as the secondary antibody. At the same time, specimens were incubated in FITC-conjugated or Alexa-Fluor 633 phalloidin (1:100; Invitrogen) to label F-actin for 1 hr. Finally, the explants were incubated with DAPI for 15 min. Specimens were examined using a Leica TCS-SP2 laser-scanning confocal microscope (Leica Microsystems Inc., Wetzlar, Germany). Cells with phalloidin-positive surface structures were counted in randomly selected areas and averaged in each sample for each condition, using an evaluation reticule 100 μm on each side. Results from 6-7 samples were evaluated, based on initial observations of variability.

[2] = test system: HC stereociliary bundles and HC bodies of utricular maculae; test: Gentamicin damage to HC stereociliary bundles and HC bodies in utricular macula explants; type: cell-based, CD-1 mice; details: 1mM GM for 48 hrs, utricular maculae in vitro, followed to 10 days
Excerpt: Dissection of vestibular maculae and tissue culture. Postnatal mice were decapitated under deep anesthesia and their temporal bones were removed. Utricula maculae were dissected from the surrounding tissue in 0.01M phosphate-buffered saline, pH 7.4. The otoconial membranes were gently removed with a fine needle. Explants of utricular sensory epithelia were placed intact on type I collagen-coated cover glasses (Iwaki, Tokyo, Japan) and maintained in 24-well culture plates (Iwaki) in Dulbecco's modified Eagle's medium (Invitrogen, Eugene, Oreg., USA), supplemented with 6 g/l glucose (Wako Pure Chemicals, Osaka, Japan) and 1.5 g/l penicillin G (Wako Pure Chemicals), at 37° C. in a humidified atmosphere of 95% air and 5% CO2 for 24 hrs.
In order to examine the toxicity of gentamicin (GM) to HC stereociliary bundles and HC bodies, we damaged explants with 1mM GM (Nakarai, Japan) for 48 hrs and then maintained the explants in culture without GM for 10 days. After fixation with 4% paraformaldehyde and histochemistry (see below), we counted stereociliary bundles and HC bodies. Bundles and HC bodies were measured using a 10×40 eyepiece reticule. Each square of the reticule was 100 μm on a side. Surviving hair bundles and HC bodies were counted in each of three randomly selected fields including both striolar and extrastriolar regions, and the values obtained were averaged. […]

Compound | stereociliary bundles in DAPT-treated explants ([1]; 20 μM DAPT) | number of myosin7A-positive cells [1] | number of HC bodies after GM treatment [2] | stereociliary bundles after GM treatment [2]
C[C@H](NC(=O)Cc1cc(F)cc(F)c1)C(=O)N[C@H](C(=O)OC(C)(C)C)c1ccccc1 [DAPT, N-[N-[(3,5-Difluoropheny)acetyl]-L-alanyl]L-phenylglycinetert-butyl] | remained very sparse | 38.5±8.64 /10000 μm2 |  | 
gentamicin [GM] |  | 25.4±5.5 /10000 μm2 | dramatically decreased | almost entirely lost
